According to paper PMC12311865, “In Vitro Evaluation of the Potential Interactions of Zearalenone-14-sulfate and Zearalenone-14-glucuronide with Human Cytochrome P450 Enzymes, Organic Anion Transporting Polypeptides, and ATP-Binding Cassette Multidrug Transporters” (ACS Omega, 2025):
Read-outs that look alike come from different tables or passages of the source.

Columns and labels:
CYP3A4 = target: T1, CYP3A4 (Homo sapiens, UniProt P08684); assay: in vitro; assay type: biochemical; conditions: testosterone 5 μM
T1 construct: purchased Merck
Text: Testosterone and 6β-hydroxytestosterone were detected at 240 nm.

OATP1A2 = target: T2, OATP1A2 (Homo sapiens, UniProt P46721); assay: OATP1A2-mediated SR101 uptake in overexpressing A431 cells; assay type: cell-based
T2 construct: expressed in transfected cells; host or cells: A431
T2 sequence (P46721 1-670): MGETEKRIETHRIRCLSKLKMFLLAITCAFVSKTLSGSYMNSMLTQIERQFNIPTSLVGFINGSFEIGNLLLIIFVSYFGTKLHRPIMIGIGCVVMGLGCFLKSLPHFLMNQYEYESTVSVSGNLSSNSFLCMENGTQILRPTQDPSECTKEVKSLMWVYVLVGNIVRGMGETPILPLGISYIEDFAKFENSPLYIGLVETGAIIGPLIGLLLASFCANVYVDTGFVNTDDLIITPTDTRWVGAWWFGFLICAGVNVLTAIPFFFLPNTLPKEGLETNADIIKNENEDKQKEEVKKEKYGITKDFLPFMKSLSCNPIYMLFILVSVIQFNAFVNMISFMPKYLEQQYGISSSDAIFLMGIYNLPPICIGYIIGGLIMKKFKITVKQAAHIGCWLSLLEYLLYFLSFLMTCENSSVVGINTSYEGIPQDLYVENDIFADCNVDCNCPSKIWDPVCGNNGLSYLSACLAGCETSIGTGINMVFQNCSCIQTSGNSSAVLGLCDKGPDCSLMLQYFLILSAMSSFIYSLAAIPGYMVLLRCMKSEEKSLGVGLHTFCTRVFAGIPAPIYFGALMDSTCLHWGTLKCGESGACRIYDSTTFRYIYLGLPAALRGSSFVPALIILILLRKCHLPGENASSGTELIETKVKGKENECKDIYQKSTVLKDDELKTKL
Method: (§1) The human epidermoid carcinoma cell (A431) overexpressing OATP1A2, OATP1B1, OATP1B3, or OATP2B1 transporters and their mock control cells were generated previously as described. , Cell culture was maintained in DMEM supplemented with 10% fetal bovine serum, 2 mM L-glutamine, 100 units/mL penicillin, and 100 μg/mL streptomycin at 37 °C and 5% CO2.
(§2) The inhibitory effects of mycotoxins (Z14S and Z14GA) were examined using indirect fluorescence assays, where pyranine and SR101 were used as fluorescent substrates. , A431 cells overexpressing OATP1A2, OATP1B1/3, or OATP2B1 and their mock-transfected controls were seeded at a density of 8 × 10^4 cells/well onto 96-well plates and incubated for 18–22 h prior to transport measurements. The next day, plated cells were washed three times with 200 μL of PBS (phosphate-buffered saline, pH 7.4) and preincubated with 50 μL of transport buffer (pH 5.5; 125 mM NaCl, 4.8 mM KCl, 1.2 mM CaCl2, 1.2 mM KH2PO4, 12 mM MgSO4, 25 mM MES, and 5.6 mM glucose) with or without increasing concentrations of the mycotoxins tested (0.001–20 μM) for 5 min at 37 °C. The transport inhibition measurements were initiated by adding 50 μL of transport buffer containing the proper fluorescent substrate SR101 (0.5 μM, OATP1A2) or pyranine (10 μM for OATP1B1 or 20 μM for OATP1B3 and OATP2B1). After 10 min (OATP1A2), 15 min (OATP1B1 and OATP2B1), or 30 min (OATP1B3) incubation, the transport was terminated by washing the cells three times with ice-cold PBS. […] Using an Enspire plate reader (PerkinElmer, Waltham, MA), the fluorescence was measured at excitation/emission wavelengths of 460/510 nm (pyranine) or 586/605 nm (SR101).
(§3) OATP-mediated transport was obtained by subtracting the activity of the mock control cells from the activity of the OATP-expressing cells. The transport activity (%) of the OATPs was calculated by comparing the fluorescence signal obtained in the absence of the compounds tested (set to 100%).

OATP1B3 = target: T3, OATP1B3 (Homo sapiens, UniProt Q9NPD5); assay: OATP1B3-mediated pyranine uptake in overexpressing A431 cells; assay type: cell-based
T3 construct: expressed in transfected cells; host or cells: A431
T3 sequence (Q9NPD5 1-702): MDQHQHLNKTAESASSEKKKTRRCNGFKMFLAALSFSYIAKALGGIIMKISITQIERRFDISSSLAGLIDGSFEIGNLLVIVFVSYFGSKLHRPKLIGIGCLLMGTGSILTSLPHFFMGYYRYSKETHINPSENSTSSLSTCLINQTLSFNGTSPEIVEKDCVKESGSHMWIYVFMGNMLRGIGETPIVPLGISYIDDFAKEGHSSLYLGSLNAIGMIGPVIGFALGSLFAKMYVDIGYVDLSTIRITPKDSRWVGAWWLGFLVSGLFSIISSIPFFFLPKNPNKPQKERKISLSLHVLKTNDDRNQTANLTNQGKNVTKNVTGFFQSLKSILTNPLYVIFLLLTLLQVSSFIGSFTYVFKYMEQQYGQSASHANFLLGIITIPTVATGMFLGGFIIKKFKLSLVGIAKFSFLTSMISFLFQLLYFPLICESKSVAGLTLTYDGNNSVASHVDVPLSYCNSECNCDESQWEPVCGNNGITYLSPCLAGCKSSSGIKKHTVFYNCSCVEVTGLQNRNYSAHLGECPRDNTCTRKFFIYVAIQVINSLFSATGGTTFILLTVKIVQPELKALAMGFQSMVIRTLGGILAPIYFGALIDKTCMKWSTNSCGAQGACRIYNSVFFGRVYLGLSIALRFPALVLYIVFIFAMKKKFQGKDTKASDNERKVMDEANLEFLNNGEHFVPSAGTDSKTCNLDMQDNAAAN
Method: as §1, §2, §3

T1 sequence (P08684 whole entry): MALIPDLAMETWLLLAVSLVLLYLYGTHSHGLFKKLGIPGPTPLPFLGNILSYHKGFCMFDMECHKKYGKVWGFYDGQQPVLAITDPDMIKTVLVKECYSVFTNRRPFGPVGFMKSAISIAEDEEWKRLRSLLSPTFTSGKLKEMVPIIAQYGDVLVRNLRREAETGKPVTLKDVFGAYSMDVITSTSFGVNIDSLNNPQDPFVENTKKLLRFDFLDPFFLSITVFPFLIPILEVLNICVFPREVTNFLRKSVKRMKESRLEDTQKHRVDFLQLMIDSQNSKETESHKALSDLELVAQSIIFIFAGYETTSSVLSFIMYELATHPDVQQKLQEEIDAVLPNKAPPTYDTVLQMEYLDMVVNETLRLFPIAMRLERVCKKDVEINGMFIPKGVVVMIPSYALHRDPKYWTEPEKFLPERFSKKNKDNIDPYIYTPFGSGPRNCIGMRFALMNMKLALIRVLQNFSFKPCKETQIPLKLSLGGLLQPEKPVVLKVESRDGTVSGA

| Compound | inhibition at 180 min, 20 μM (CYP3A4; human, pH 7.5, each 20 μM, read-out: inhibition of CYP3A4 (decrease in metabolite formation)) [%] | IC50 (OATP1A2) [nM] | decrease in OATP1A2 transport activity (OATP1A2; 20 μM, SR101 substrate, A431 cells) | IC50 (OATP1B3) [nM] | decrease in OATP1B3 transport activity (OATP1B3; 20 μM, pyranine substrate, A431 cells) | inhibition of CYP3A4 (decrease in metabolite formation) (CYP3A4; each 20 μM, 180 min) | IC50 (OATP1A2; SR101 0.5 μM, 10 min, A431 cells, read-out: IC50 for OATP1A2) [nM] | IC50 (OATP1B3; pyranine 20 μM, 30 min, A431 cells, read-out: IC50 for OATP1B3) [nM] |
| --- | --- | --- | --- | --- | --- | --- | --- | --- |
| C[C@H]1CCCC(=O)CCC/C=C/c2cc(OS(=O)(=O)O)cc(O)c2C(=O)O1 [Z14S, zearalenone-14-sulfate] | ~45 | 1400 | 80–100% | 2300 | 80–100% |  |  |  |
| C[C@H]1CCCC(=O)CCC/C=C/c2cc(O[C@@H]3O[C@H](C(=O)O)[C@@H](O)[C@H](O)[C@H]3O)cc(O)c2C(=O)O1 [Z14GA, Zearalenone-14-glucuronide] |  |  |  |  |  | no effects | > 20000 | > 20000 |
